The source of these data is US8263608B2, “Melanocortin receptor-specific spiro-piperidine compounds” (Palatin Technologies, Inc., priority 2008, dated 2012).

The target of this test is T1, MC1-R (Homo sapiens, UniProt Q01726).
T1 construct: or, for MC1-R, in HBL cells; endogenous in cells; host or cells: HBL cells
Description: Assay for agonist activity: intracellular cAMP accumulation (functional assay). It counts as cell-based. The note with it: functional assays at MC1-R; for EC50: HBL cells that express MC1-R, cAMP; for Emax: maximum efficacy compared to reference agonist NDP-α-MSH. The protocol: Accumulation of intracellular cAMP is examined as a measure of the ability of the test compounds to elicit a functional response in HEK-293 cells that express MC4-R, or, for MC1-R, in HBL cells. Confluent HEK-293 cells that express recombinant hMC4-R, or HBL cells that express MC1-R, are detached from culture plates by incubation in enzyme-free cell dissociation buffer. Dispersed cells are suspended in Earle's Balanced Salt Solution containing 10 mM HEPES (pH 7.5), 1 mM MgCl2, 1 mM glutamine, 0.5% albumin and 0.3 mM 3-isobutyl-1-methyl-xanthine (IBMX), a phosphodiesterase inhibitor. The cells are plated in 96-well plates at a density of 0.5 x 10^5 cells per well and pre-incubated for 30 minutes. Cells are exposed for 1 hour at 37° C. to test compounds dissolved in DMSO (final DMSO concentration of 1%) at a concentration range of 0.05-5000 nM in a total assay volume of 200 μL. NDP-α-MSH is used as the reference agonist. At the end of the incubation period, cells are disrupted by the addition of 50 μL of lysis buffer (cAMP EIA kit, Amersham) followed by vigorous pipetting. Levels of cAMP in the lysates are determined using a cAMP EIA kit (Amersham). Data analysis is performed by nonlinear regression analysis with Graph-Pad Prism® software. The maximum efficacies of the test compounds are compared to that achieved by the reference melanocortin agonist NDP-α-MSH.

T1 sequence (Q01726 whole entry): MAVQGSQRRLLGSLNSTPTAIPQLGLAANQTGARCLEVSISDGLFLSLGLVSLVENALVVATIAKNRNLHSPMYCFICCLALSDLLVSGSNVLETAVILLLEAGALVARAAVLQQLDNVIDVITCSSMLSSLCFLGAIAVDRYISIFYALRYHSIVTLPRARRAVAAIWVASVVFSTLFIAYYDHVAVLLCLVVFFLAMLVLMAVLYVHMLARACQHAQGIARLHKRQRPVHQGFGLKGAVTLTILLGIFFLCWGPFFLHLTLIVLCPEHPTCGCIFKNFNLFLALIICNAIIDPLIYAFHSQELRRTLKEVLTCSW

With `COc1ccc(C[C@@H](NC(=O)[C@@H](N)Cc2cncn2C)C(=O)N2CCC3(CC2)C(=O)N(C(C)C)CN3c2ccccc2)cc1` [Example 141, (S)-2-Amino-N-[(R)-2-(3-isopropyl-4-oxo-1-phenyl-1,3,8-triaza-spiro[4.5]dec-8-yl)-1-(4-methoxy-benzyl)-2-oxo-ethyl]-3-(3-methyl-3H-imidazol-4-yl)-propionamide], the “functional status at MC1-R” value is “partial agonist”, the EC50 turned out to be 6 nM and the Emax worked out at 45%.

Consider `COc1ccc(C[C@@H](NC(=O)CCc2cnc[nH]2)C(=O)N2CCC3(CC2)C(=O)N(C2CCCC2)CN3c2ccccc2)cc1` [Example 152, N-[(R)-2-(3-Cyclopentyl-4-oxo-1-phenyl-1,3,8-triaza-spiro[4.5]dec-8-yl)-1-(4-methoxy-benzyl)-2-oxo-ethyl]-3-(3H-imidazol-4-yl)-propionamide], for which the “functional status at MC1-R” value is given as “partial agonist”, the EC50 amounted to 2 nM and the Emax worked out at 50%.

For `COc1ccc(C[C@@H](NC(=O)CCc2cnc[nH]2)C(=O)N2CCC3(CC2)C(=O)N(CCO)CN3c2ccccc2)cc1` [Example 149, N-[(R)-2-[3-(2-Hydroxy-ethyl)-4-oxo-1-phenyl-1,3,8-triaza-spiro[4.5]dec-8-yl]-1-(4-methoxy-benzyl)-2-oxo-ethyl]-3-(3H-imidazol-4-yl)-propionamide], the “functional status at MC1-R” value is “partial agonist”; the midpoint of the response, the EC50, lay at 25 nM; the Emax is 60%.

For `COC(=O)CN1CN(c2ccccc2)C2(CCN(C(=O)[C@@H](Cc3ccc(OC)cc3)NC(=O)CCc3cnc[nH]3)CC2)C1=O` [Example 137, {8-[(R)-2-(3-3H-Imidazol-4-yl-propionylamino)-3-(4-methoxy-phenyl)-propionyl]-4-oxo-1-phenyl-1,3,8-triaza-spiro[4.5]dec-3-yl}-acetic acid methyl ester], the “functional status at MC1-R” value is “partial agonist”, the response was half-maximal at 38 nM (EC50) and the Emax came to 56%.

Take `CCN1CN(c2ccccc2)C2(CCN(C(=O)[C@@H](Cc3ccc(OC)cc3)NC(=O)[C@@H](N)Cc3cncn3C)CC2)C1=O` [Example 140, (S)-2-Amino-N-[(R)-2-(3-ethyl-4-oxo-1-phenyl-1,3,8-triaza-spiro[4.5]dec-8-yl)-1-(4-methoxy-benzyl)-2-oxo-ethyl]-3-(3-methyl-3H-imidazol-4-yl)-propionamide]: the “functional status at MC1-R” value is given as “partial agonist”, the EC50 came to 25 nM and the maximal effect (Emax) was 42%.

Take `CCCCN1CN(c2ccccc2)C2(CCN(C(=O)[C@@H](Cc3ccc(OC)cc3)NC(=O)[C@@H](N)Cc3cncn3C)CC2)C1=O` [Example 142, (S)-2-Amino-N-[(R)-2-(3-butyl-4-oxo-1-phenyl-1,3,8-triaza-spiro[4.5]dec-8-yl)-1-(4-methoxy-benzyl)-2-oxo-ethyl]-3-(3-methyl-3H-imidazol-4-yl)-propionamide]: the “functional status at MC1-R” value is “partial agonist”, the EC50 came to 20 nM and the maximal effect (Emax) was 43%.

As for `COc1ccc(C[C@@H](NC(=O)CCc2c[nH]cn2)C(=O)N2CCC3(CC2)C(=O)N(Cc2ccccc2)CN3c2ccccc2)cc1` [Example 153, N-[(R)-2-(3-Benzyl-4-oxo-1-phenyl-1,3,8-triaza-spiro[4.5]dec-8-yl)-1-(4-methoxy-benzyl)-2-oxo-ethyl]-3-(1H-imidazol-4-yl)-propionamide], the “functional status at MC1-R” value is recorded as “partial agonist”, the EC50 turned out to be 12 nM and the Emax worked out at 54%.

Regarding `COc1ccc(C[C@@H](NC(=O)CCc2c[nH]cn2)C(=O)N2CCC3(CC2)C(=O)N(Cc2ccccn2)CN3c2ccccc2)cc1` [Example 157, 3-(1H-Imidazol-4-yl)-N-[(R)-1-(4-methoxy-benzyl)-2-oxo-2-(4-oxo-1-phenyl-3-pyridin-2-ylmethyl-1,3,8-triaza-spiro[4.5]dec-8-yl)-ethyl]-propionamide], the “functional status at MC1-R” value is “partial agonist”, the response was half-maximal at 41 nM (EC50) and the Emax is 38%.

On to `COc1ccc(C[C@@H](NC(=O)CCc2cnc[nH]2)C(=O)N2CCC3(CC2)C(=O)N(C2CCC2)CN3c2ccccc2)cc1` [Example 159, N-[(R)-2-(3-Cyclobutyl-4-oxo-1-phenyl-1,3,8-triaza-spiro[4.5]dec-8-yl)-1-(4-methoxy-benzyl)-2-oxo-ethyl]-3-(3H-imidazol-4-yl)-propionamide], for which the “functional status at MC1-R” value is listed as “partial agonist”, it took 6 nM to reach a half-maximal effect (EC50) and the Emax stood at 49%.

In the case of `COc1ccc(C[C@@H](NC(=O)CCc2c[nH]cn2)C(=O)N2CCC3(CC2)C(=O)N(Cc2ccc(Cl)cc2)CN3c2ccccc2)cc1` [Example 156, N-[(R)-2-[3-(4-Chloro-benzyl)-4-oxo-1-phenyl-1,3,8-triaza-spiro[4.5]dec-8-yl]-1-(4-methoxy-benzyl)-2-oxo-ethyl]-3-(1H-imidazol-4-yl)-propionamide], the “functional status at MC1-R” value is “partial agonist”, the EC50 was 23 nM and the Emax worked out at 45%.

`COc1ccc(C[C@@H](NC(=O)[C@@H](N)Cc2cncn2C)C(=O)N2CCC3(CC2)C(=O)N(C2CCCC2)CN3c2ccccc2)cc1` [Example 151, (S)-2-Amino-N-[(R)-2-(3-cyclopentyl-4-oxo-1-phenyl-1,3,8-triaza-spiro[4.5]dec-8-yl)-1-(4-methoxy-benzyl)-2-oxo-ethyl]-3-(3-methyl-3H-imidazol-4-yl)-propionamide]: the “functional status at MC1-R” value is reported as “partial agonist”, the EC50 is 7 nM and the maximum response (Emax) stood at 37%.

Consider `COc1ccc(C[C@@H](NC(=O)[C@@H](N)Cc2cncn2C)C(=O)N2CCC3(CC2)C(=O)N(Cc2ccccc2)CN3c2ccccc2)cc1` [Example 144, (S)-2-Amino-N-[(R)-2-(3-benzyl-4-oxo-1-phenyl-1,3,8-triaza-spiro[4.5]dec-8-yl)-1-(4-methoxy-benzyl)-2-oxo-ethyl]-3-(3-methyl-3H-imidazol-4-yl)-propionamide], for which the “functional status at MC1-R” value is reported as “partial agonist”, it took 17 nM to reach a half-maximal effect (EC50) and the Emax was 46%.

On to `COc1ccc(C[C@@H](NC(=O)CCc2c[nH]cn2)C(=O)N2CCC3(CC2)C(=O)N(Cc2cccnc2)CN3c2ccccc2)cc1` [Example 158, 3-(1H-Imidazol-4-yl)-N-[(R)-1-(4-methoxy-benzyl)-2-oxo-2-(4-oxo-1-phenyl-3-pyridin-3-ylmethyl-1,3,8-triaza-spiro[4.5]dec-8-yl)-ethyl]-propionamide], for which the “functional status at MC1-R” value was “partial agonist”, a half-maximal response (EC50) required 20 nM and the maximal effect (Emax) is 45%.

In the case of `COc1ccc(C[C@@H](NC(=O)CCc2c[nH]cn2)C(=O)N2CCC3(CC2)C(=O)N(Cc2cccc(Cl)c2)CN3c2ccccc2)cc1` [Example 155, N-[(R)-2-[3-(3-Chloro-benzyl)-4-oxo-1-phenyl-1,3,8-triaza-spiro[4.5]dec-8-yl]-1-(4-methoxy-benzyl)-2-oxo-ethyl]-3-(1H-imidazol-4-yl)-propionamide], the “functional status at MC1-R” value is “partial agonist”; the midpoint of the response, the EC50, lay at 14 nM; the Emax turned out to be 42%.

As for `COc1ccc(C[C@@H](NC(=O)CCc2c[nH]cn2)C(=O)N2CCC3(CC2)C(=O)N(Cc2ccccc2Cl)CN3c2ccccc2)cc1` [Example 154, N-[(R)-2-[3-(2-Chloro-benzyl)-4-oxo-1-phenyl-1,3,8-triaza-spiro[4.5]dec-8-yl]-1-(4-methoxy-benzyl)-2-oxo-ethyl]-3-(1H-imidazol-4-yl)-propionamide], the “functional status at MC1-R” value is “partial agonist”, a half-maximal effect (EC50) was put at 26 nM and the Emax stood at 50%.

For `COc1ccc(C[C@@H](NC(=O)[C@@H](N)Cc2cncn2C)C(=O)N2CCC3(CC2)C(=O)N(C)CN3c2ccccc2)cc1` [Example 139, (S)-2-Amino-N-[(R)-1-(4-methoxy-benzyl)-2-(3-methyl-4-oxo-1-phenyl-1,3,8-triaza-spiro[4.5]dec-8-yl)-2-oxo-ethyl]-3-(3-methyl-3H-imidazol-4-yl)-propionamide], the “functional status at MC1-R” value is on record as “partial agonist”, it took 177 nM to reach a half-maximal effect (EC50) and the Emax was determined as 45%.

With `COc1ccc(C[C@@H](NC(=O)C[C@H]2Cc3ccccc3CN2)C(=O)N2CCC3(CC2)C(=O)N(C(C)C)CN3c2ccccc2)cc1` [Example 164, N-[(R)-2-(3-Isopropyl-4-oxo-1-phenyl-1,3,8-triaza-spiro[4.5]dec-8-yl)-1-(4-methoxy-benzyl)-2-oxo-ethyl]-2-(R)-1,2,3,4-tetrahydro-isoquinolin-3-yl-acetamide], the “functional status at MC1-R” value is recorded as “partial agonist”, a half-maximal effect (EC50) was put at 0.7 nM and the maximal effect (Emax) was determined as 75%.

Consider `COc1ccc(C[C@@H](NC(=O)CCc2cnc[nH]2)C(=O)N2CCC3(CC2)C(=O)N(C(C)C)CN3c2ccccc2)cc1` [Example 150, 3-(3H-Imidazol-4-yl)-N-[(R)-2-(3-isopropyl-4-oxo-1-phenyl-1,3,8-triaza-spiro[4.5]dec-8-yl)-1(4-methoxy-benzyl)-2-oxo-ethyl]-propionamide], for which the “functional status at MC1-R” value is recorded as “partial agonist”; the midpoint of the response, the EC50, lay at 3 nM; the Emax stood at 71%.
